One block for each molecule: values may come before it.
Tests used:
[1] = system: monoclonal antibody (mouse IgG2a, clone 3E-7) raised against human β-endorphin; assay: Peptide binding to immobilized anti-β-endorphin mAb affinity column in tandem with C-18 column
Protocol: The purchased mAb (280 mg resuspended in 1 ml H2O) was passed over an XL cartridge (2.1×30 mm) consisting of protein-G coupled to POROS™ perfusion chromatographic media (PerSeptive Biosystems, Framingham, Mass.) by making […] injections on a BioCAD™ 20 Workstation (PerSeptive Biosystems, Framingham, Mass.). Protein-G binds to the Fc region of antibodies with high affinity. The mAb was subsequently cross-linked to the protein G using the standard methods and materials provided with the XL column. In brief, this consisted of passing 14 ml of cross-linking solution (100 mM triethanolamine, pH 8.5, 7.8 mg/ml dimethyl pimelimidate (DMP)) over the column at a flow rate of 0.5 ml/mm. The cross-linking reagent was quenched by subsequent injection of 2 ml of 100 mM monoethanolamine, pH 9.0. The sensor cartridge was washed with PBS, pH 7.4 at 0.5 ml/min for 2 min followed by a further injection of 2 ml of quench solution and washed as above. […] A second XL column (without antibody) was treated with cross-linking reagents and washed as for the affinity column for use as a “control column”.
The target immobilized affinity column prepared above was plumbed in tandem mode to a vydac reversed phase C-18 column on a BioCAD™ Workstation using the configuration shown in FIG. 5. This configuration allowed independent equilibration and washing of the affinity and vydac columns while allowing in line elution of material bound to the mAb-column directly onto the vydac column. The reverse phase vydac column could then be eluted independently of the affinity column.
This reversed phase column was then developed with a gradient of acetonitrile (4% ACN/12 mM HCl to 80% ACN/6 mM HCl over 18 min; flow rate 1 ml/min). Both columns were re-equilibrated in their respective starting buffers prior to the next injection.
The peptide solution (20 nmol) was injected onto the affinity column and then unbound peptide was removed by washing the column with PBS, pH, 7.4. Peptides affinity captured by the antibody was eluted from the “target column” directly onto the C-18 column for resolution.

LPS (serotype O55;B5) = assay: LPS binding, tandem weak anion exchange / reverse phase columns with varied wash volumes; details: for wash volumes of column 1 needed to reduce peak by 50%: 1 CV=1.66 ml, 50 mM Tris pH 6.7; for retention on weak anion exchange column 1: with/without preincubation with LPS
From the text: We used a tandem column method employing POROS™ columns on a BioCAD™ 20 Workstation. Column 1 was a weak anion exchange column (PI/M; 4.6×100 mm) while column 2 was a reverse phase column (R2/H; 4.6×100 mm). […] LPS, however, would be expected to interact with this column due to the presence of two charged phosphate groups at the lipid A region of the molecule. […] Material retained on column 1 was eluted directly onto column 2 where it was captured. Elution of column 2 allowed the resolution of peaks arising from column 1.
Screening the library for binding to LPS was performed as follows. The cationic fraction of the XXXFL library was incubated (30 min/RT) with 1-3 mg/ml of LPS (serotype O55;B5; Sigma Chemical Co., St. Louis, Mo.) in 50 mM Tris, pH 6.7. At this time the incubation mixture was injected and run over column 1 on the BioCAD™ Workstation (equilibrated in the same buffer). The column was run at 4 ml/min. After washing with the appropriate number of column volumes of equilibration buffer (1 CV=1.66 ml), the column was purged and eluted (using 8 mM HCl, 1M NaCl) directly onto column 2 by switching the latter column in line with column 1 during the elution process. Material captured on column 2 was eluted using a gradient from 12 mM HCl in water to 80% ACN, 6 mM HCl. Peaks were collected, further purified by rerunning on a vydac C-18 column (4.6×250 mm), and analyzed by Mass Spectrometry (on a Voyager™ MALDI-TOF instrument; PerSeptive Biosystems, Framingham, Mass.) and peptide sequencing (Hewlett Packard). Peptides identified were synthesized and binding of these molecules to the Lipid A region of the LPS was confirmed by measuring the ability of PmxB or Pentamidine to compete with the peptide for this site.
The number of wash volumes required to reduce the peak for these agents correlated with the reported affinities of these agents for LPS; PmxB (Kd […]) was reduced 50% after 42 CVs washing of column 1 while pentamidine (Kd 100 nM) required a higher number of washes for a similar reduction (46 CVs). Using this methodology we could rapidly examine which peaks from the library were capable of binding to LPS with the highest affinity since, upon exposure to higher numbers of wash volumes only the peptides with higher affinity for the target were retained. […] Three such peaks from the XXXFL library and 3 peaks from the CXXXC library were further purified and characterized by MS and peptide sequencing. […] The other peptides will be synthesized and studied in a similar manner although another approach being considered is that a sublibrary of the format ZZZFL (where Z represents either R or K) be screened to identify the member with the highest affinity. Candidates purified from the cyclic library are still awaiting sequencing.

LPS = details: read-out: Kd for LPS (reported affinity); cited from earlier work
mouse IgG (Fc fragment) = assay: Solution phase peptide screening (SEC - reversed phase) of protein A and G digests; assay type: binding; details: native and denatured recombinant protein A and G digests
Protocol: 5 mg each of either mouse IgG (whole) or the Fc fragment was incubated with 20 mg of natural library and protein A and G digests, respectively. The mixture was dissolved in 1 ml of a mixture of 25 mM sodium phosphate buffer and 0.15 M NaCl (pH 7) overnight at 4° C. After incubation, several chromatographic runs through the Superdex SEC and RP columns were conducted with 200 of the protein and peptide mixture injected through the Superdex column during each run. The flow rate for the Superdex column was 0.75 m/min with the 25 mM sodium phosphate buffer and 0.15 M NaCl (pH 7) mixture. The early eluting protein peak was collected directly onto the RP column. The remaining portion of the peak was washed off the SEC. The mouse IgG (whole) or Fc fragment and its associated peptides were then eluted from the RP column under the following conditions:
Fractions corresponding to bound peptide peaks were lyophilized and redissolved in 1001 of 0.1% TFA/DIW for mass spec analysis by MALDI-TOF.

[2] = target: Monoclonal antibody (mAb), mouse IgG2a, clone 3E-7, raised against human β-endorphin (mouse); assay: increasing quantities of peptide injected on immobilized mAb column; peak height on C-18 column
[3] = target: Monoclonal antibody (mAb), mouse IgG2a, clone 3E-7, raised against human β-endorphin (mouse); assay: 20 nmol peptide injected on immobilized mAb column, acid eluted onto C-18 column; peak area
Concanavalin A (Con A) [4] = target: Concanavalin A (Con A) (Canavalia ensiformis, UniProt P02866)
From the text: (§1) The lectin Concanavalin A (Con A) has been used. Ligands were screened for specific binding to the sugar site of Con A as an example of the bimolecular approach to screening a mixture of components for interaction with a target. Biotinylated succinyl Con A was immobilized onto a streptavidin POROS™ support (BA cartridge, 2.1×30 mm). […] After exposing the column to 10 CVs of CAB buffer (0.2 m/min.), the remaining peptides were acid eluted onto a RP column. These peptides were eluted from a RP HPLC column using an acetonitrile gradient and the fractions were collected, pooled and sequenced. Recovery of each amino acid was expressed as a percentage of the total amount of amino acids recovered at each cycle of sequencing (AA %). Amino acid enrichment was then expressed for each amino acid as follows: [formula]

Concanavalin A (Con A) [5] = system: Concanavalin A (Con A)
From the text: as §1

IgG = IgG purification from human serum on POROS-immobilized peptide column; assay type: binding
Protocol: 1 g POROS™ AL (aldehyde) was suspended in 10 mM PBS (pH 7.5) containing 100 mg sodium cyanoborohydride (NaCNBH3). 5 to 20 mg of each of the peptides selected by various screening procedures was added to the resin and the mixture was shaken overnight at room temperature. 100 mg sodium borohydride (NaBH4) was then added and the mixture was shaken for another 2 hrs. The beads were then washed with PBS and packed into 4.6 mm D×100 mm L column using POROS™ Self Pack® device.
100 μl of 1:10 diluted serum was injected onto the peptide column which was equilibrated with 20 mM tris (pH 8.0) at 5 ml/min. The bound proteins were eluted with 0-1 M NaCl gradient in 15 CVs. Fractions were collected manually and concentrated by Speed Vac for subsequent analysis by SDS-polyacrylamide gel electrophoresis.
The […] (SEQ ID NO: 8) peptide with heme group was immobilized on POROS™AL® (aldehyde) via the N-terminal end. This POROS™-peptide conjugate was used to separate IgG from serum at pH 8 under a 0-1 M NaCl gradient. […] To determine the nature of interaction, the purification profile of IgG separated on the POROS™-peptide column was compared with the IgG purified on standard ion exchange columns such as POROS™-CM and POROS™ HQ. […] The effect of the varying loading densities of peptide (from 10 mg/g POROS™ to 100 mg/g POROS™) on specificity and capacity for IgG binding was also investigated. The specificity of the peptide for IgG binding was also investigated. […] At low loading density (10 mg/g POROS™) IgG bound primarily via ionic interaction requiring elution of bound IgG with salt gradient. At higher loading density ([…]) IgG bound strongly and eluted with acid buffer. The binding capacity varied from 1-2 mg/ml column volume at lower ligand density to 30 mg/ml column volume at higher ligand densities.
A simplified analog of the heme peptide ([…]) (SEQ ID NO: 9) was synthesized and immobilized on POROS™ AL via the N-terminal end. […] The bound IgG was eluted from the GAQGHTVBK (SEQ ID NO: 9)-POROS™ column with 100 mM NaCl. The IgG binding capacity was determined to be 5 mg/ml column volume. Loading densities from 20 mg/g to 40 mg peptide /g POROS™ were evaluated. At these ligand densities, the specificity of IgG binding was not affected, but the capacity was reduced.

[6] = target: human IgG (whole), pure or from human serum (human); assay: peptide immobilized on POROS AL via the N-terminal end; IgG binding capacity of the column

- retention by the mAb affinity column ([1]; parallel experiment): not retained
Molecule: YEYFL (OTHER INFORMATION: Description of Artificial Sequence: synthetic peptide)

Molecule: KKRFL (OTHER INFORMATION: Description of Artificial Sequence: synthetic peptide)
- affinity for LPS relative to Pentamidine (LPS (serotype O55;B5)): much lower than the latter molecule
- competition for LPS binding (LPS (serotype O55;B5); competition experiment with Pentamidine): displaced by Pentamidine
- binding to LPS (LPS (serotype O55;B5); synthesized peptide, same paradigm): demonstrated to bind to LPS

Molecule: N=C(N)c1ccc(OCCCCCOc2ccc(C(=N)N)cc2)cc1 [pentamidine]
- Kd (LPS): 100 nM
- wash volumes of column 1 needed to reduce peak by 50% (LPS (serotype O55;B5)): 46 CVs
- retention on weak anion exchange column 1 (LPS (serotype O55;B5)): retained on column 1 under the conditions used only after preincubation in the presence of LPS

Molecule: GDAPTPEKEPEASI (OTHER INFORMATION: Description of Artificial Sequence: Protein fragment derived from the tryptic digest of protein A and G) [peptide from recombinant Protein G digest]
- selected as binder in solution phase screening (mouse IgG (Fc fragment)): identified

Molecule: polymyxin B
- wash volumes of column 1 needed to reduce peak by 50% (LPS (serotype O55;B5)): 42 CVs
- retention on weak anion exchange column 1 (LPS (serotype O55;B5)): retained on column 1 under the conditions used only after preincubation in the presence of LPS

Molecule: EKEPEVID (OTHER INFORMATION: Description of Artificial Sequence: Protein fragment derived from the tryptic digest of protein A and G) [peptide from recombinant Protein G digest]
- selected as binder in solution phase screening (mouse IgG (Fc fragment)): identified

- amount of the bound peptide at saturation [2]: 1.2 nmol
- amount of the peptide recovered [3]: 1.2 nmol
Molecule: synthetic peptide YGGFL (SEQ ID NO: 1)

Molecule: HHRSY
- displacement by competing sugar ligand (Concanavalin A (Con A) [4]; high concentration of competing sugar ligand): displaced somewhat
- binding to Con A immobilized on the column (Concanavalin A (Con A) [4]; synthesized peptide): capable of binding specifically to Con A
- binding to control column (Concanavalin A (Con A) [5]): little binding to the control column

Molecule: TVTEK (OTHER INFORMATION: Description of Artificial Sequence: Protein fragment derived from the tryptic digest of protein A and G)
- IgG binding affinity relative to proteins A & G (IgG; salt gradient suffices for elution): bind IgG, but with less affinity

Molecule: TVTEKPEV (immobilized on POROS; OTHER INFORMATION: Description of Artificial Sequence: Synthetic peptide corresponding to a part of the Fc binding domain of recombinant protein G)
- specificity of IgG binding from human serum (IgG; pH 8, immobilized on POROS via N-terminal end): comparable specificity as the POROS™-Protein A conjugate

Molecule: YGGFL
- amount of the peptide recovered from affinity column, calculated from peak area ([1]; 20 nmol injected, PBS pH 7.4 wash, eluted onto C-18): approximately 1.2 nmoles
- effect of injection flow rate on amount of peptide bound/recovered ([1]; flow rate 0.2 ml/min to 5 ml/min): did not affect the recovery
- amount of bound peptide at saturation, calculated from peak height ([1]; increasing quantities injected): about 1.2 nmoles

Molecule: TVTEKPE (OTHER INFORMATION: Description of Artificial Sequence:Protein fragment derived from the tryptic digest of protein A and G) [peptide from recombinant Protein G digest]
- selected as binder in solution phase screening (mouse IgG (Fc fragment)): identified

- IgG binding capacity (mg/ml column volume) [6]: 5
B1: … (SEQ ID NO: 9), simplified analog of the heme peptide (peptide)
peptide: GAQGHTVEK
